Experimental data taken from PMC13129536 (The Journal of Biological Chemistry, 2026).

System: M. tuberculosis Erdman
Assay: Pathogenic (BSL3) tuberculosis CFU assay
Assay type: cell-based
Details: Mycobacterium tuberculosis, 96 h; for IC50: read-out: IC50 (CFU/mL at 96 hours); for IC90: read-out: IC90 (CFU/mL at 96 hours)

For `c1ccc(-c2nc3cc(Cc4ccc5[nH]c(-c6ccccn6)nc5c4)ccc3[nH]2)nc1` [Compound F0850-5995], which IC50 is on record?
The IC50 was ~1.12 µM.

What about the IC90 of the same compound?
Its IC90 is 6.64 ± 3.86 µM.

How did the IC50 turn out when `Cc1ccc(C)c(Nc2nc(NCc3ccccc3)c3ccccc3n2)c1` [Compound F0909-0124] was run?
Its IC50 is ~8.97 µM.

Which results are given for `C[C@@H](O)[C@H]1C(=O)N2C(C(=O)O)=C(S[C@@H]3CN[C@H](C(=O)N(C)C)C3)[C@H](C)[C@H]12` [Meropenem, meropenem, reference compound]?
IC50: 0.697 ± 0.11 µg/mL; IC90: 1.16 ± 0.255 µg/mL
